Measurements published in ChEMBL document CHEMBL5252602, “Identification and in silicon binding study of a novel NR2B selective NMDAR antagonist” (Bioorg Med Chem Lett, 2023).
pIC50: −log10 of the molar value.

What was measured:
[1] = system: SH-SY5Y; assay: Neuroprotective activity against human SH-SY5Y cells assessed as effect on NMDA mediated cell damage at 0.05 uM by MTT assay relative to control; format: functional
[2] = system: SH-SY5Y; assay: Neuroprotective activity against human SH-SY5Y cells assessed as effect on NMDA mediated cell damage at 0.5 uM by MTT assay relative to control; format: functional
[3] = system: SH-SY5Y; assay: Neuroprotective activity against human SH-SY5Y cells assessed as effect on NMDA mediated cell damage at 5 uM by MTT assay relative to control; format: functional
[4] = target: Glutamate receptor ionotropic, NMDA 2B (Homo sapiens, UniProt Q05586+Q13224); assay: Antagonist activity at NMDA receptor NR2B subunit (unknown origin)
Glutamate receptor ionotropic, NMDA 2B, sequence (Q13224 whole entry, one chain of several): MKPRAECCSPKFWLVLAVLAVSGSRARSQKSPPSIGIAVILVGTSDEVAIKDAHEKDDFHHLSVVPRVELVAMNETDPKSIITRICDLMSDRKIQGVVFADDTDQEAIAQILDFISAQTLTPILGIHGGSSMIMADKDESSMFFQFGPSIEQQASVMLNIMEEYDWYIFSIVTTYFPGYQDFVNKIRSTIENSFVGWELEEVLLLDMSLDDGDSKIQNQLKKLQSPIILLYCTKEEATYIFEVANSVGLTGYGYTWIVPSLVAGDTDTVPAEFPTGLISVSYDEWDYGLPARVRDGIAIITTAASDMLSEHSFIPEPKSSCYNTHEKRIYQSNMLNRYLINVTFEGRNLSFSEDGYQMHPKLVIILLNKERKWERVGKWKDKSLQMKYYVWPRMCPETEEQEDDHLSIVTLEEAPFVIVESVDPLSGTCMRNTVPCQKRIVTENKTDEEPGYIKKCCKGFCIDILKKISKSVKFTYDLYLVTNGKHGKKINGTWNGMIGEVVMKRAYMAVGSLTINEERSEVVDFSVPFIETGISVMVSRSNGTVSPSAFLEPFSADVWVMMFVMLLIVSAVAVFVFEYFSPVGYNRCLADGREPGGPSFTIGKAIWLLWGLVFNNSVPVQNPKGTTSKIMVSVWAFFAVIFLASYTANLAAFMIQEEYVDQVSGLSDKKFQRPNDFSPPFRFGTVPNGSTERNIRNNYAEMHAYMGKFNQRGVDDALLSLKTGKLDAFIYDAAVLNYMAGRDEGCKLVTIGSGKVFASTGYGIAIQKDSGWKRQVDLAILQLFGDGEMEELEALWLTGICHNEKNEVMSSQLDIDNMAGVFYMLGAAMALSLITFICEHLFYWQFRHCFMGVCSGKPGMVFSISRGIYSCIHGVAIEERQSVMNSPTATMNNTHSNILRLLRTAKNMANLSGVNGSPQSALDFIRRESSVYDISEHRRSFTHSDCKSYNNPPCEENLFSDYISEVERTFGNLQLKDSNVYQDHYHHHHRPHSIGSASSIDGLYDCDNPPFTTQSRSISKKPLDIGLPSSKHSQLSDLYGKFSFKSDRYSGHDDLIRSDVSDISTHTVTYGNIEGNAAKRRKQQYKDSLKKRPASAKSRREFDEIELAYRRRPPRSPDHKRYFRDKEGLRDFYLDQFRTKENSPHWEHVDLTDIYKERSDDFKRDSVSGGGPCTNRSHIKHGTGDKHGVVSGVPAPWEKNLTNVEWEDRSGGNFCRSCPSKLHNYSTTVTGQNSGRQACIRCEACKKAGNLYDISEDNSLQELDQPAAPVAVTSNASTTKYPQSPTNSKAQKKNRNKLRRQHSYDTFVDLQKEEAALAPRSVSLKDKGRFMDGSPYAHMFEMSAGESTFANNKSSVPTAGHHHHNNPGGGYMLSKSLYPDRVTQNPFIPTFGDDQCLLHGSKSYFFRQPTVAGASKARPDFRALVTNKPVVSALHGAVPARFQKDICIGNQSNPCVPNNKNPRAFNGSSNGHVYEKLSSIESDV

O=C(NNC(=O)[C@@H]1CCC2=Nc3ccc(Cl)cc3CN21)c1ccc(O)cc1
Activity [1]: 16.03%
Activity [2]: 22.55%
Activity [3]: 22.58%

O=C(NNC(=O)[C@@H]1CCC2=Nc3ccc(Br)cc3CN21)c1ccc(F)cc1
Activity [1]: 23.87%
Activity [2]: 19.88%
Activity [3]: 19.48%

O=C(NNC(=O)[C@@H]1CCC2=Nc3ccc(Br)cc3CN21)c1ccccc1
Activity [1]: 7.13%
Activity [2]: 20.92%
Activity [3]: 18.22%

O=C(NCCc1cccc(O)c1)[C@@H]1CCC2=Nc3ccc(Br)cc3CN21
Activity [1]: 28.73%
Activity [2]: 28.87%
Activity [3]: 25.35%

O=C(NCCc1cccc(O)c1)[C@@H]1CCC2=Nc3ccccc3CN21
Activity [1]: 29.63%
Activity [2]: 29.17%
Activity [3]: 24.42%

O=C(NCCc1ccc(F)cc1)[C@@H]1CCC2=Nc3ccc(Br)cc3CN21
Activity [1]: 4.05%
Activity [2]: 7.08%
Activity [3]: -2.81%

O=C(NCCc1ccc(F)cc1)[C@@H]1CCC2=Nc3ccc(Cl)cc3CN21
Activity [1]: 13.45%
Activity [2]: 27.96%
Activity [3]: 26.14%

Nc1ccc(C(=O)NNC(=O)[C@@H]2CCC3=Nc4ccc(Br)cc4CN32)cc1
Activity [1]: 25.12%
Activity [2]: 24.22%
Activity [3]: 15.62%

Nc1ccc(C(=O)NNC(=O)[C@@H]2CCC3=Nc4ccc(Cl)cc4CN32)cc1
Activity [1]: 30.71%
Activity [2]: 25.28%
Activity [3]: 20.43%

Nc1ccc(CCNC(=O)[C@@H]2CCC3=Nc4ccc(Br)cc4CN32)cc1
Activity [1]: -15.74%
Activity [2]: -15.08%
Activity [3]: -11.03%

Nc1ccc(CCNC(=O)[C@@H]2CCC3=Nc4ccc(Cl)cc4CN32)cc1
Activity [1]: -5.03%
Activity [2]: -16.58%
Activity [3]: -15.32%

O=C(NCCc1ccc(O)cc1)[C@@H]1CCC2=Nc3ccc(Cl)cc3CN21
Activity [1]: 28.93%
Activity [2]: 28.33%
Activity [3]: 21.32%

O=C(NCCc1ccccc1)[C@@H]1CCC2=Nc3ccc(Br)cc3CN21
Activity [1]: 11.08%
Activity [2]: 7.54%
Activity [3]: 10.59%

COc1ccc(CCNC(=O)[C@@H]2CCC3=Nc4ccc(Cl)cc4CN32)cc1
Activity [1]: 17.35%
Activity [2]: 30.19%
Activity [3]: 30.66%

COc1ccc(C(=O)NNC(=O)[C@@H]2CCC3=Nc4ccc(Cl)cc4CN32)cc1
Activity [1]: 19.6%
Activity [2]: 20.2%
Activity [3]: 12.17%

O=C(NNC(=O)[C@@H]1CCC2=Nc3ccc(Cl)cc3CN21)c1ccc(F)cc1
Activity [1]: 22.58%
Activity [2]: 20.68%
Activity [3]: 17.26%

O=C(NNC(=O)[C@@H]1CCC2=Nc3ccc(Cl)cc3CN21)c1ccccc1
Activity [1]: 26.91%
Activity [2]: 24.25%
Activity [3]: 19.76%

O=C(NCCc1ccccc1)[C@@H]1CCC2=Nc3ccc(Cl)cc3CN21
Activity [1]: 13.21%
Activity [2]: 5.78%
Activity [3]: 10.01%

COc1ccc(C(=O)NNC(=O)[C@@H]2CCC3=Nc4ccccc4CN32)cc1
Activity [1]: 12.59%
Activity [2]: 17.74%
Activity [3]: 22.42%

COc1ccc(CCNC(=O)[C@@H]2CCC3=Nc4ccc(Br)cc4CN32)cc1
Activity [1]: 27.75%
Activity [2]: 27.25%
Activity [3]: 17.27%

COc1ccc(C(=O)NNC(=O)[C@@H]2CCC3=Nc4ccc(Br)cc4CN32)cc1
Activity [1]: 9.01%
Activity [2]: 15.94%
Activity [3]: 19.77%

O=C(NCCc1cccc(O)c1)[C@@H]1CCC2=Nc3ccc(Cl)cc3CN21
Activity [1]: 23.62%
Activity [2]: 28.02%
Activity [3]: 29.37%

Cc1nccn1Cc1cc(-c2ccc(F)c(C(F)F)c2)cnn1 [EVT-101 FREE BASE]
pIC50 [4]: 7.77

CC(C(O)c1ccc(O)cc1)N1CCC(Cc2ccccc2)CC1 (stereo not given) [IFENPRODIL]
Activity [1]: 16.4%
Activity [2]: 22.57%
Activity [3]: 35.81%
